From ChEMBL document CHEMBL1150165, “Antineoplastic agents. 489. Isolation and structures of meliastatins 1-5 and related euphane triterpenes from the tree Melia dubia” (2002) come the findings set out here.

≈ marks a conversion by molar mass, not a printed value.

Holding throughout (type): functional
Assay [1] deals with P388. Put plainly: Growth inhibition of mouse P388 cells. As to conditions: read-out: ED50 (the source's name).
Assay [2] has as its system KM-20L2. The experiment in a line: Growth inhibition of human KM20L2 cells.
The subject of assay [3] is BXPC-3. Put plainly: Growth inhibition of human BxPC3 cells.
Assay [4] concerns NCI-H460. The experiment in a line: Growth inhibition of human NCI-H460 cells.
For assay [5], the system named is DU-145. The experiment in a line: Growth inhibition of human DU145 cells.
The subject of assay [6] is MCF7. Put plainly: Growth inhibition of human MCF7 cells.
Assay [7] deals with SF-268. The experiment in a line: Growth inhibition of human SF268 cells.

For `CC(C)=CCC[C@@H](C)[C@@H]1[C@@H](O)C[C@]2(C)C3=CC[C@H]4C(C)(C)[C@@H](O)CC[C@]4(C)[C@H]3CC[C@@]12C`, the EC50 in assay [1] amounted to 2.5 µg/mL (≈ 5.65 µM).
Take `C=C(C)[C@@H]1CCC([C@@H]2[C@@H](O)C[C@]3(C)C4=CC[C@H]5C(C)(C)C(=O)CC[C@]5(C)[C@H]4CC[C@@]23C)C(=O)O1` (stereo not given in full) [DUBIONE B]: the EC50 in assay [1] was determined as 20.5 µg/mL (≈ 43.7 µM).
For the molecule `O=c1[nH]cc(F)c(=O)[nH]1` [FLUOROURACIL], the EC50 in assay [1] came out at 0.075 µg/mL (≈ 0.577 µM).
As to `CC(C)=CCC[C@H]1C(=O)O[C@H]2C[C@]3(C)C4=CC[C@H]5C(C)(C)C(=O)CC[C@]5(C)[C@H]4CC[C@@]3(C)[C@@H]21` [KULACTONE], the EC50 in assay [1] was 6.2 µg/mL (≈ 13.7 µM).
For the molecule `CC(C)=CCC[C@@H](C)[C@@H]1[C@@H](O)C[C@]2(C)C3=CC[C@H]4C(C)(C)C(=O)CC[C@]4(C)[C@H]3CC[C@@]12C` [KULINONE], the 50% growth inhibitory concentration (GI50) in assay [2] worked out at 3.6 µg/mL (≈ 8.17 µM); in assay [3], 3.61 µg/mL (≈ 8.19 µM); in assay [4], 3.6 µg/mL (≈ 8.17 µM); in assay [5], 3.6 µg/mL (≈ 8.17 µM); in assay [6], 3.6 µg/mL (≈ 8.17 µM); in assay [7], 3.6 µg/mL (≈ 8.17 µM). The EC50 in assay [1] is 4.6 µg/mL (≈ 10.4 µM).
Regarding `C[C@H](C/C=C/C(C)(C)O)[C@@H]1[C@@H](O)C[C@]2(C)C3=CC[C@H]4C(C)(C)C(=O)CC[C@]4(C)[C@H]3CC[C@@]12C` [MELIASTATIN 1], the GI50 in assay [2], in assay [3], in assay [4], in assay [5], in assay [6] and in assay [7] was 1.9 µg/mL (≈ 4.16 µM) in each case. Besides, the EC50 in assay [1] was determined as 2.5 µg/mL (≈ 5.47 µM).
Turning to `COC(=O)[C@H](C/C=C/C(C)(C)O)[C@@H]1[C@@H](O)C[C@]2(C)C3=CC[C@H]4C(C)(C)C(=O)CC[C@]4(C)[C@H]3CC[C@@]12C` [MELIASTATIN 2], the GI50 in assay [2], in assay [3], in assay [4], in assay [5], in assay [6] and in assay [7] was 6.3 µg/mL (≈ 12.6 µM) throughout. In assay [1], the EC50 stood at 5.6 µg/mL (≈ 11.2 µM).
Consider `COC(=O)[C@H](C/C=C/C(C)(C)OO)[C@@H]1[C@@H](O)C[C@]2(C)C3=CC[C@H]4C(C)(C)C(=O)CC[C@]4(C)[C@H]3CC[C@@]12C` [MELIASTATIN 3], for which, in assay [1], the EC50 is 3.1 µg/mL (≈ 6 µM).
Consider `C=C(C)[C@@H](O)CC[C@@H](C(=O)OC)[C@@H]1[C@@H](O)C[C@]2(C)C3=CC[C@H]4C(C)(C)C(=O)CC[C@]4(C)[C@H]3CC[C@@]12C` [MELIASTATIN 4], for which the EC50 in assay [1] turned out to be 2 µg/mL (≈ 3.99 µM).
Turning to `C=C(C)C(O)CC[C@@H](C)[C@@H]1[C@@H](O)C[C@]2(C)C3=CC[C@H]4C(C)(C)C(=O)CC[C@]4(C)[C@H]3CC[C@@]12C` (stereo not given in full) [MELIASTATIN 5], in assay [1], the EC50 was 1.7 µg/mL (≈ 3.72 µM).
As to `COC(=O)[C@H](CCC=C(C)C)[C@@H]1[C@@H](O)C[C@]2(C)C3=CC[C@H]4C(C)(C)C(=O)CC[C@]4(C)[C@H]3CC[C@@]12C` [METHYL KULONATE], the GI50 in assay [2], in assay [3], in assay [4], in assay [5], in assay [6] and in assay [7] was 3.7 µg/mL (≈ 7.63 µM) throughout. For the same molecule, the EC50 in assay [1] is 5.1 µg/mL (≈ 10.5 µM).

For orientation: GI50 means the concentration that inhibits growth by half. Lower therefore signals greater sensitivity of the cells.
